Drawing on ChEMBL document CHEMBL1153471, “3,5-Diphenylpent-2-enoic acids as allosteric activators of the protein kinase PDK1: structure-activity relationships and thermodynamic characterization of binding as paradigms for PIF-binding pocket-targeting compounds” (J Med Chem, 2009), this text covers Kd, Ka and Activity for ten compounds.

For orientation: Kd means the concentration at which binding is half-saturated.

Changes are numbered by the printed parent chain. The source made the active and inactive calls. No cut-off for these calls is given here.

The target of assay [1] is T1, 3-phosphoinositide-dependent protein kinase 1 (Homo sapiens, UniProt O15530).
T1 sequence (O15530 whole entry): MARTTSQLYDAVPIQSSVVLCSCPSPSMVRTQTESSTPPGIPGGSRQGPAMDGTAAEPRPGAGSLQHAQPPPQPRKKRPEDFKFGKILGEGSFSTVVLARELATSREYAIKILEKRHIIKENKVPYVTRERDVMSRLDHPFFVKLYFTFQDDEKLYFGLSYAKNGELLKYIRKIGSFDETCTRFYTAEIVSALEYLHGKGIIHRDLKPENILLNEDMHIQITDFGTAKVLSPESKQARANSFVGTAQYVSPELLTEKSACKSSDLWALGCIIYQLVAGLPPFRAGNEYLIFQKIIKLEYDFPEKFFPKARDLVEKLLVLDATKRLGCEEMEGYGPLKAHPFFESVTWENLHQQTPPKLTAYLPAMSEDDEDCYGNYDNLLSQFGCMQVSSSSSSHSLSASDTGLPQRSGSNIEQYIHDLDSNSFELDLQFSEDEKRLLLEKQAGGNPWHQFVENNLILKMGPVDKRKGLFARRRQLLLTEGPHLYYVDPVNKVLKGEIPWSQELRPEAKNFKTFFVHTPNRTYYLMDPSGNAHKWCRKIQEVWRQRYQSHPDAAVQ
Briefly: Binding affinity to PDK1 (50 to 359) by isothermal titration calorimetry. For orientation: In ITC the heat of successive injections is recorded.

For assay [2], the target named is T2, 3-phosphoinositide-dependent protein kinase 1 (Homo sapiens) (UniProt O15530).
T2 sequence (whole entry): T1 sequence (O15530 whole entry)

Assay [3] has as its system T3, 3-phosphoinositide-dependent protein kinase 1 (Homo sapiens), O15530 [V127T].
T3 sequence (whole entry): T1 sequence (O15530 whole entry) with V127T
Put plainly: Binding affinity to GST-PDK1 V127T mutant expressed in HEK293 cells at 2 uM. The class given is cell-based.

Assay [4] concerns the target T2, 3-phosphoinositide-dependent protein kinase 1 (Homo sapiens). Put plainly: Binding affinity to wild type recombinant GST-PDK1 expressed in HEK293 cells at 2 uM. It counts as cell-based.

Consider `O=C(O)/C=C(\CCc1ccc(Br)cc1F)c1ccccc1`, for which the Kd entry in assay [1] was “Not Active”.
On to `O=C(O)/C=C(/CCc1ccc(C(F)(F)F)cc1)c1ccccc1`, for which the dissociation constant Kd in assay [1] (read-out: Kd) was 10.4 µM. The Ka in assay [2] turned out to be 96600 M⁻¹.
In the case of `O=C(O)/C=C(\CCC1C=Nc2ccccc21)c1ccccc1` (centres undefined), the Kd entry in assay [1] was “Not Active”.
Turning to `O=C(O)/C=C(/CCc1ccc(Cl)c(Cl)c1)c1ccccc1`, the Kd in assay [1] (read-out: Kd) was determined as 13.9 µM. In assay [2], this compound gave a Ka of 71800 M⁻¹.
For `O=C(O)/C=C(/CCc1ccc(Br)cc1)c1ccccc1` the same measures were 20.9 µM and 47800 M⁻¹.
`O=C(O)/C=C(/CCc1ccc2ccccc2c1)c1ccccc1`: the Kd in assay [1] (read-out: Kd) came to 13.8 µM.
As to H-REPRILSEEEQEMFRDFDYIADEC-OH, the outcome in assay [3] and in assay [4] was Active.
Turning to `O=C(O)/C=C(/CCc1c[nH]c2ccccc12)c1ccccc1`, the equilibrium dissociation constant (Kd) in assay [1] (read-out: Kd) was determined as 10 µM.
As for `O=C(O)/C=C(/CCc1ccc(Cl)cc1Cl)c1ccccc1`, the Kd in assay [1] (read-out: Kd) is 5.9 µM.
Consider `O=C(O)/C=C(\CCc1ccc2ccccc2c1)c1ccccc1`, for which the Kd result in assay [1] is given as “Not Active”.
